Experimental data as given in patent publication US20110196035A1, “Temporally-Controlled Treatment of Joint Disease” (priority 2010, published 2011).
Where two headings read alike, the source gives them in different places.

Tested on: HIG-82 synovial cells
Procedure: After having made these measurements at various times following insertion of the test composition into the simulated joint, the effect on MMP production by synovial cells for relevant blocker concentrations and times of exposure was measured employing a confluent layer of HIG-82 synovial cells in serumless Neuman-Tytell growth medium, which is a model system commonly used by those skilled in the art to represent human synovial tissue for the purpose of studying the proinflammatory effects of IL-1 and the antagonization thereon produced by agents of interest, for example, calcium-channel blockers.
The MMP levels in the medium conditioned by the cells were measured using the assay described in Kolomytkin, O. V., Marino, A. A., Waddell, D. D., Mathis, J. M., Wolf, R. E., Sadasivan, K. K. and Albright, J. A. IL-1β-induced Production of Metalloproteinases by Synovial Cells Depends on Gap-junction Conductance.

COc1ccc(CCN(C)CCCC(C#N)(c2ccc(OC)c(OC)c2)C(C)C)cc1OC (racemic) [racemic verapamil, verapamil]
reduction of MMP activity (0.009 mg/mL for 300 hours): about 21% | reduction of MMP production/activity (0.05 mg/mL for 32 hours): 59% | reduction of MMP production/activity (0.05 mg/mL for 34 hours): 61% | reduction in MMP activity (0.05 mg/mL for 62 hours): 87% | inhibition at 50 µg/mL (Synovial cell, 45 h, read-out: maximum MMP inhibition): ~81% | inhibition at 31 µg/mL (Synovial cell, 300 h, read-out: MMP inhibition): ~61% | inhibition at 19 µg/mL (Synovial cell, 300 h, read-out: maximum MMP inhibition): 37% | inhibition at 50 µg/mL (Synovial cell, read-out: MMP inhibition): 81% | reduction of MMP production (conditions of 2 mg in saline composition: average 0.006 mg/mL, about 35 hours): 13% | verapamil concentration at which MMP inhibition reaches its maximum value (exposure about 45 hours, further increases give no enhanced inhibition): about 0.05 mg/mL | maximum MMP inhibition (exposure time 10 hours (FIG. 3A)): 22% | maximum MMP inhibition (exposure time 100 hours (FIG. 3A)): 91%
